Assays:
[1] = test system: Epidermal growth factor receptor (Homo sapiens), P00533 [UNDEFINED MUTATION]; settings: Compound concentration 1000.0 nM
[2] = target: Cyclin-dependent kinase-like 1 (Homo sapiens) (UniProt Q00532); settings: Compound concentration 1000.0 nM
[3] = target: Hormonally up-regulated neu tumor-associated kinase (Homo sapiens) (UniProt P57058); settings: Compound concentration 1000.0 nM
[4] = target: Casein kinase I isoform gamma-1 (Homo sapiens) (UniProt Q9HCP0); settings: Compound concentration 1000.0 nM
[5] = target: MAP/microtubule affinity-regulating kinase 3 (Homo sapiens) (UniProt P27448); settings: Compound concentration 1000.0 nM
[6] = target: Cyclin-dependent kinase-like 5 (Homo sapiens) (UniProt O76039); settings: Compound concentration 1000.0 nM
[7] = target: Calcium/calmodulin-dependent protein kinase type 1D (Homo sapiens) (UniProt Q8IU85); settings: Compound concentration 1000.0 nM
[8] = target: Phosphatidylinositol 4,5-bisphosphate 3-kinase catalytic subunit alpha isoform (Homo sapiens) (UniProt P42336); settings: Compound concentration 1000.0 nM
[9] = target: Cyclin-dependent kinase 16 (Homo sapiens) (UniProt Q00536); settings: Compound concentration 1000.0 nM
[10] = target: 5'-AMP-activated protein kinase catalytic subunit alpha-1 (Homo sapiens) (UniProt Q13131); settings: Compound concentration 1000.0 nM
[11] = target: Serine/threonine-protein kinase pim-3 (Homo sapiens) (UniProt Q86V86); settings: Compound concentration 1000.0 nM
[12] = target: Bone morphogenetic protein receptor type-2 (Homo sapiens) (UniProt Q13873); settings: Compound concentration 1000.0 nM
[13] = target: Misshapen-like kinase 1 (Homo sapiens) (UniProt Q8N4C8); settings: Compound concentration 1000.0 nM
[14] = target: Tyrosine-protein kinase TXK (Homo sapiens) (UniProt P42681); settings: Compound concentration 1000.0 nM
[15] = target: Serine/threonine-protein kinase Nek5 (Homo sapiens) (UniProt Q6P3R8); settings: Compound concentration 1000.0 nM
[16] = target: T1, Muscarinic acetylcholine receptor M5 (Homo sapiens) (UniProt P08912); settings: Compound concentration 10.0 uM
T1 sequence (whole entry): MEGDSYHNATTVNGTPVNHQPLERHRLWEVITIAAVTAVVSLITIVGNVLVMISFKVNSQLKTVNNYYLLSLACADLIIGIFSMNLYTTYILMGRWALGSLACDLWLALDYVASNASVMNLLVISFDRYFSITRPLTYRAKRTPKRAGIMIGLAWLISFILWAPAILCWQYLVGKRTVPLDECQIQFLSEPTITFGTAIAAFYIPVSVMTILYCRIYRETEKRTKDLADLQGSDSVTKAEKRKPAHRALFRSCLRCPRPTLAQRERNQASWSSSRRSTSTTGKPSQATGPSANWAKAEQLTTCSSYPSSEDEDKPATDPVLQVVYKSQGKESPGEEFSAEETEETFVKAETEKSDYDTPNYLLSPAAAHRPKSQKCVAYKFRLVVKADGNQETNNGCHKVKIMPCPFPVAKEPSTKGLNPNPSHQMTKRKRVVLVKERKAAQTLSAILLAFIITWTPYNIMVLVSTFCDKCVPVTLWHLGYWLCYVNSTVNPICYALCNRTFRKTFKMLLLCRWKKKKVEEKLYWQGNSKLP

[17] = target: Interleukin-1 receptor-associated kinase 4 (Homo sapiens) (UniProt Q9NWZ3); settings: Compound concentration 1000.0 nM
[18] = target: Macrophage-stimulating protein receptor (Homo sapiens) (UniProt Q04912); settings: Compound concentration 1000.0 nM
[19] = target: Serine/threonine-protein kinase mTOR (Homo sapiens) (UniProt P42345); settings: Compound concentration 1000.0 nM
[20] = target: Mitogen-activated protein kinase kinase kinase 19 (Homo sapiens) (UniProt Q56UN5); settings: Compound concentration 1000.0 nM
[21] = target: Macrophage colony-stimulating factor 1 receptor (Homo sapiens) (UniProt P07333); settings: Compound concentration 1000.0 nM
[22] = target: Serine/threonine-protein kinase PLK1 (Homo sapiens) (UniProt P53350); settings: Compound concentration 1000.0 nM
[23] = test system: Tyrosine-protein kinase ABL1 (Homo sapiens), P00519 [Y253F]; settings: Compound concentration 1000.0 nM
[24] = target: T2, D(4) dopamine receptor (Homo sapiens) (UniProt P21917); settings: Compound concentration 10.0 uM
T2 sequence (whole entry): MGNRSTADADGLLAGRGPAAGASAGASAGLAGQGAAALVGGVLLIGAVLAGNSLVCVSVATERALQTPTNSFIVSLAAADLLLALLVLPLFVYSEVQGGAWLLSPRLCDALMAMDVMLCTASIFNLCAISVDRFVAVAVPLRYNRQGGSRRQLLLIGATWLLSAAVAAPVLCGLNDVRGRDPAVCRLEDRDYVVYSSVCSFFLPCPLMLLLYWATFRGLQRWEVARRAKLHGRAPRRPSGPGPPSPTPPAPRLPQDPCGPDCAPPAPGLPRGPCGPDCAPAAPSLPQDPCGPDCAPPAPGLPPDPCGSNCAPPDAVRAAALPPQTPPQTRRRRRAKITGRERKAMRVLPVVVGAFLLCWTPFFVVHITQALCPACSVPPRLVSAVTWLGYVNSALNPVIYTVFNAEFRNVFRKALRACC

[25] = target: Calcium/calmodulin-dependent protein kinase kinase 2 (Homo sapiens) (UniProt Q96RR4); settings: Compound concentration 1000.0 nM
[26] = target: Tyrosine-protein kinase ITK/TSK (Homo sapiens) (UniProt Q08881); settings: Compound concentration 1000.0 nM
[27] = target: Serine/threonine-protein kinase 36 (Homo sapiens) (UniProt Q9NRP7); settings: Compound concentration 1000.0 nM
[28] = target: Transient receptor potential cation channel subfamily M member 6 (Homo sapiens) (UniProt Q9BX84); settings: Compound concentration 1000.0 nM
[29] = target: Ephrin type-A receptor 2 (Homo sapiens) (UniProt P29317); settings: Compound concentration 1000.0 nM
[30] = target: Atypical kinase COQ8B, mitochondrial (Homo sapiens) (UniProt Q96D53); settings: Compound concentration 1000.0 nM
[31] = target: Microtubule-associated serine/threonine-protein kinase 1 (Homo sapiens) (UniProt Q9Y2H9); settings: Compound concentration 1000.0 nM
[32] = target: Serine/threonine-protein kinase SIK2 (Homo sapiens) (UniProt Q9H0K1); settings: Compound concentration 1000.0 nM

Serine/threonine-protein kinase 36 (Homo sapiens), sequence (Q9NRP7 whole entry): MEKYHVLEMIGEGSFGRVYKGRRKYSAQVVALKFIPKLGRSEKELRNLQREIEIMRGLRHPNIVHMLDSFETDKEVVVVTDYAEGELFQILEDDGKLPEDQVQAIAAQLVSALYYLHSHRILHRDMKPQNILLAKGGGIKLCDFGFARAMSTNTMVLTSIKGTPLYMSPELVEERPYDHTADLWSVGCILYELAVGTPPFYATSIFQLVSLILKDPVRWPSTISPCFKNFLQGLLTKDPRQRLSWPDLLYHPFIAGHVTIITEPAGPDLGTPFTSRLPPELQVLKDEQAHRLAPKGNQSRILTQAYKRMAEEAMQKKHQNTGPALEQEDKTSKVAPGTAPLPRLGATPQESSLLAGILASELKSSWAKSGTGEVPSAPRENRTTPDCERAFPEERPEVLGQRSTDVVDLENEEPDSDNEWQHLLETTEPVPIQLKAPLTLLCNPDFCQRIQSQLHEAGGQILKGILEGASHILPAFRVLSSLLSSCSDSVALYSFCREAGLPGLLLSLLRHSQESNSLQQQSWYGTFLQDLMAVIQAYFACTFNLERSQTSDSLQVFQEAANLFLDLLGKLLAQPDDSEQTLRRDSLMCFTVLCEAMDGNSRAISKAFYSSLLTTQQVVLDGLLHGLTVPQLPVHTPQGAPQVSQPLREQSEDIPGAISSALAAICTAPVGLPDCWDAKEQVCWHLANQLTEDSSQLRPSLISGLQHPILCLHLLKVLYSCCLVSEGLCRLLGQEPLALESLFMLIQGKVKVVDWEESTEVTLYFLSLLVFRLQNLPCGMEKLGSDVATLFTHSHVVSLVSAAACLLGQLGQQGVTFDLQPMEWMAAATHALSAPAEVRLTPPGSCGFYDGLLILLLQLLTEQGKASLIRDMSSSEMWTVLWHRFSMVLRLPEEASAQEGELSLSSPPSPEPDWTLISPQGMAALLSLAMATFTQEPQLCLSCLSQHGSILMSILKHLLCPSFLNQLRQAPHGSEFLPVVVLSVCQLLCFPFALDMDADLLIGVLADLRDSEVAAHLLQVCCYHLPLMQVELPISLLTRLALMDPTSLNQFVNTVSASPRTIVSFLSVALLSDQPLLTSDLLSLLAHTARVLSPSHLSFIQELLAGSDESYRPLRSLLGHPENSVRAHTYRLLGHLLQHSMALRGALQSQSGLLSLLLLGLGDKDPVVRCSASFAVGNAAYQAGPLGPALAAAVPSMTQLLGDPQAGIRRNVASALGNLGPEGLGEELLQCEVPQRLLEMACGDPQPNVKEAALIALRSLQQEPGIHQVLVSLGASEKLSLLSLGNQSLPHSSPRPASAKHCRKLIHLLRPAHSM
MAP/microtubule affinity-regulating kinase 3 (Homo sapiens), sequence (P27448 whole entry, looked up): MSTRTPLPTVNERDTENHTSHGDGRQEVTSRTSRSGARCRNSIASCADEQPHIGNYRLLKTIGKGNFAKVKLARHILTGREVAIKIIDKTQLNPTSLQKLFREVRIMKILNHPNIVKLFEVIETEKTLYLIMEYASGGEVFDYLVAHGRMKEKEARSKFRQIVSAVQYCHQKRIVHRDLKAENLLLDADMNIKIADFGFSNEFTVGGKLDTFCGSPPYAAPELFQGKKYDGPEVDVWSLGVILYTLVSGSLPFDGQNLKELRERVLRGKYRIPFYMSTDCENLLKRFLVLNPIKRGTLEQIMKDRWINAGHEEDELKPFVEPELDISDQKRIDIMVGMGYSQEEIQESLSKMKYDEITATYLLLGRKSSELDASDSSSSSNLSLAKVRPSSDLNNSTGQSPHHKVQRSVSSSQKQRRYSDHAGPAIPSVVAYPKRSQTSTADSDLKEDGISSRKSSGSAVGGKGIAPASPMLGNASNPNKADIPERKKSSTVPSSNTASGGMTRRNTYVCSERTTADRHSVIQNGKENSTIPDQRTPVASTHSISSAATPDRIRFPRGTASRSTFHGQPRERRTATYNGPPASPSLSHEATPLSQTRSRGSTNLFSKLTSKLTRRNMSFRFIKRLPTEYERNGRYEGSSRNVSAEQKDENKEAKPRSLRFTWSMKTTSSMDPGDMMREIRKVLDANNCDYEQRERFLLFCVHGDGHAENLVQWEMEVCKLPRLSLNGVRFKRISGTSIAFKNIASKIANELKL
Cyclin-dependent kinase-like 1 (Homo sapiens), sequence (Q00532 whole entry): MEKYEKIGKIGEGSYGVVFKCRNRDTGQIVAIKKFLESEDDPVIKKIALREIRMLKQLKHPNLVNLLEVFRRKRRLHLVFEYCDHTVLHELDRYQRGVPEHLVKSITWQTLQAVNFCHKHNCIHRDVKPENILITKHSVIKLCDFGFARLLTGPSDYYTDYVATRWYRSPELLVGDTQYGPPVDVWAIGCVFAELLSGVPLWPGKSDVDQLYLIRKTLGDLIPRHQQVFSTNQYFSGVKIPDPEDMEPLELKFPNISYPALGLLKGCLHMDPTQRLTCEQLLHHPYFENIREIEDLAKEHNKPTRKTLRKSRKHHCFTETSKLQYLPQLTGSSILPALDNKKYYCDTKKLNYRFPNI
Mitogen-activated protein kinase kinase kinase 19 (Homo sapiens), sequence (Q56UN5 whole entry): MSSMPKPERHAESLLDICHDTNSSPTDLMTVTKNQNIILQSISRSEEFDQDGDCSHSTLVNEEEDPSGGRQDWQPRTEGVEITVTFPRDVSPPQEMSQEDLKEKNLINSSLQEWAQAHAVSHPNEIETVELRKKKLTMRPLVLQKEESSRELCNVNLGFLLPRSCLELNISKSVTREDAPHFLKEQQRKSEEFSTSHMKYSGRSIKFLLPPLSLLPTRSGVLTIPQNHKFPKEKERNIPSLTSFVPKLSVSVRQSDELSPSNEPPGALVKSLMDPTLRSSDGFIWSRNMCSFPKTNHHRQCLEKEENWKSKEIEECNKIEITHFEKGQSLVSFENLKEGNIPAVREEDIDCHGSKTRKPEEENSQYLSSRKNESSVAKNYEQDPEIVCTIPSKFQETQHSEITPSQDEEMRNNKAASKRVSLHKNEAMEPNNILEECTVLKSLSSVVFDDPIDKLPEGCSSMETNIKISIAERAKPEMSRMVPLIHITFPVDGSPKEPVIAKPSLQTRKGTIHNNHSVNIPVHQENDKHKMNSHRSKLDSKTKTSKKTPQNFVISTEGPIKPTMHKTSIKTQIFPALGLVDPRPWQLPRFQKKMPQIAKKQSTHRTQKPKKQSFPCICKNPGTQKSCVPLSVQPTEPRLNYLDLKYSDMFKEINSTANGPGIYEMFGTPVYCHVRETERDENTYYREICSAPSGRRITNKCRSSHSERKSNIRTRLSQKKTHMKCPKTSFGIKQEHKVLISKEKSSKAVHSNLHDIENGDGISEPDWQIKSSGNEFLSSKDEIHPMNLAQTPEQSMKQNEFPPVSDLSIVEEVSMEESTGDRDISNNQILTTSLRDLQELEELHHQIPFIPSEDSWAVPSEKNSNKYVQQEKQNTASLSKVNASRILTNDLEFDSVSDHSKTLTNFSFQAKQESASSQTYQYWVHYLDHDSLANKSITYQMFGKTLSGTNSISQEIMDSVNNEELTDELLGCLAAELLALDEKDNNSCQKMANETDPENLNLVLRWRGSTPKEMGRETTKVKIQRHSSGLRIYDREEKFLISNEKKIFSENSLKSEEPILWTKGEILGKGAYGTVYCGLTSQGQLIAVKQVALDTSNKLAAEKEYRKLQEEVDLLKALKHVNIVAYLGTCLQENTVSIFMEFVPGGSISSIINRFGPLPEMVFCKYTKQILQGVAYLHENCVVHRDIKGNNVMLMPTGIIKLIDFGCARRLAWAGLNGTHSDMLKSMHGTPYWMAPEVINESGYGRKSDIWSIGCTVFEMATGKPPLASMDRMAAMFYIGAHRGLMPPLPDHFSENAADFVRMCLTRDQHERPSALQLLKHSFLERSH
Bone morphogenetic protein receptor type-2 (Homo sapiens), sequence (Q13873 whole entry): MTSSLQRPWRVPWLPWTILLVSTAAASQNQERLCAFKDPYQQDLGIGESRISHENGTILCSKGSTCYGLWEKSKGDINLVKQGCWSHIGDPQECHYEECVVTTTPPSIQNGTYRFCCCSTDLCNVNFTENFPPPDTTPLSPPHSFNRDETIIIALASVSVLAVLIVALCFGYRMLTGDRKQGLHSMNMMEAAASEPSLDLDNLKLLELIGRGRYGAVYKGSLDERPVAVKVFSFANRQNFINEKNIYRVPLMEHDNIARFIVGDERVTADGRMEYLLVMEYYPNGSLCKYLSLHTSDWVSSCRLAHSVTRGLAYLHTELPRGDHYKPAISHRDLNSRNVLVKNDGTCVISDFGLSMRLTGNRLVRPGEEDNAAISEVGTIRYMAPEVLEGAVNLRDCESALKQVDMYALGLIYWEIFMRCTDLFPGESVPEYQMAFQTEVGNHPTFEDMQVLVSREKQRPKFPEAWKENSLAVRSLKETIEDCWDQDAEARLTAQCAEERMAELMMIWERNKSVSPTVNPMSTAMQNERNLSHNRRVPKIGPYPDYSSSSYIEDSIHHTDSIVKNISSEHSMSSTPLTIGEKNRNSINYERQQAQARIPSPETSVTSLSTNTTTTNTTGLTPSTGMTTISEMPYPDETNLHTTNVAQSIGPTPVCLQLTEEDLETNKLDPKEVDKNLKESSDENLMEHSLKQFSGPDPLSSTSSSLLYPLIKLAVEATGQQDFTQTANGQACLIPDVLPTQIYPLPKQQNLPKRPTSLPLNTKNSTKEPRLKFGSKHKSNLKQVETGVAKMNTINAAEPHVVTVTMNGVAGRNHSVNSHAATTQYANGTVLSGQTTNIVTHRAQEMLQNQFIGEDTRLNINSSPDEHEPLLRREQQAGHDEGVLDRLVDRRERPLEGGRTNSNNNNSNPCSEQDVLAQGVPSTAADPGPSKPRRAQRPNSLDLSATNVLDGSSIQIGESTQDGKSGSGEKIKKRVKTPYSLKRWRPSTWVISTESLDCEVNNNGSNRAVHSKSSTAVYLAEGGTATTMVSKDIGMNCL

Cn1cncc1[C@@](O)(COc1ccc(C#N)cc1-c1ccc(OC(F)(F)F)cc1)c1ccc(C#N)cc1 [A-108]
inactive: residual activity [1] 64% | residual activity [2] 89% | residual activity [3] 100% | residual activity [4] 91% | residual activity [5] 93% | residual activity [6] 93% | residual activity [7] 100% | residual activity [8] 72% | residual activity [9] 85% | residual activity [10] 100% | residual activity [11] 100% | residual activity [12] 100% | residual activity [13] 100% | residual activity [14] 85% | residual activity [15] 98% | inhibition [16] 1.23% | residual activity [17] 80% | residual activity [18] 100% | residual activity [19] 100% | residual activity [20] 100% | residual activity [21] 85% | residual activity [22] 83% | residual activity [23] 92% | inhibition [24] 6.23% | residual activity [25] 97% | residual activity [26] 100% | residual activity [27] 93% | residual activity [28] 100% | residual activity [29] 89% | residual activity [30] 100% | residual activity [31] 100% | residual activity [32] 100%

Cn1cncc1[C@](O)(COc1ccc(C#N)cc1-c1ccc(OC(F)(F)F)cc1)c1ccc(C#N)cc1 [ABT-100]
inactive: residual activity [1] 78% | residual activity [2] 82% | residual activity [3] 68% | residual activity [4] 90% | residual activity [5] 100% | residual activity [6] 100% | residual activity [7] 100% | residual activity [8] 100% | residual activity [9] 100% | residual activity [10] 99% | residual activity [11] 89% | residual activity [12] 89% | residual activity [13] 94% | residual activity [14] 87% | residual activity [15] 72% | inhibition [16] -4.82% | residual activity [17] 75% | residual activity [18] 100% | residual activity [19] 57% | residual activity [20] 63% | residual activity [21] 94% | residual activity [22] 77% | residual activity [23] 94% | inhibition [24] -1.32% | residual activity [25] 100% | residual activity [26] 91% | residual activity [27] 80% | residual activity [28] 100% | residual activity [29] 62% | residual activity [30] 72% | residual activity [31] 92% | residual activity [32] 95%
